# Patent publication EP0855181A2 (priority 1997, dated 1998)
# Read-outs that look alike come from different tables or passages of the source.
# Legend:
# Human neutrophils (PMN) = system: Human neutrophils (PMN)
# Experimental: Human neutrophils (PMN) are isolated from EDTA-anticoagulated blood by Ficoll-density-centrifugation and by dextran sedimenation as described by Böyum, A. in Scand. J. Clin. Lab. Invest. 21(Suppl. 97):77-89, 1968.Variable concentrations of glycine (4.0 mM, 0.4 mM and 0.04 mM in a volume of 50 µl) and as a control 50 µl PBS are incubated with human neutrophils (2x10^7 cells/ml in a volume of 500 µl in Ca/Mg (1/0.5mM) and 0.25mM luminol) for 20 min at 37°C and stimulation is subsequently carried out with fMLP (N-formyl-methionyl-leucyl-phenylalanine, 10^-5M), NaF (20mM) or PMA (10 ng), each in a volume of 50µl, for 30 min at 37°C. fMLP is a receptor-mediated stimulus, NaF is a G-protein-mediated activator of cells and PMA activates the protein kinase C. As a control neutrophils are incubated with the variable glycine concentrations without subsequent stimulation. Respiratory burst is measured by chemiluminescence response of oxygen radicals essentially as described in Immunology, 1992, 76, 86-94.
# [1] = system: Peripheral mononuclear cells (PMNs)
# Neutrophils (PMNs) = system: Neutrophils (PMNs)
# Experimental: Neutrophils (PMNs, isolated as described in example 2, in a concentration of 2x10^7/ml in a volume of 500µl + 50 µl 1mM Ca/0.5mM Mg) are preincubated with glycine (0.0004mM, 0.004mM, 0.04mM, 0.4mM and 4mM in a volume of 50µl) for 20 or 30 minutes at 37°C. Subsequently they are treated with cytochalasin (50 µl, 10^-5M) and stimulated with 50 µl fMLP (10^-5M), NaF (20mM), or primed with 50µl GM-CSF (10ng) and subsequently stimulated with 50µl NaF (20mM), fMLP (10^-5M) or Ca-ionophore (5µM) and incubated for a further 20 minutes at 37°C. Leukotrienes are measured by HPLC as described in Immunology 67:401-407.
# [2] = system: lymphocytes, monocytes, basophils (LMBs)
# [3] = system: Peripheral mononuclear cells
# Experimental: Peripheral mononuclear cells (as in example 2 but in a concentration of 10^6/ml) are pre-incubated with SEB at variable concentrations (50 µl of 1 ng/ml, 0,1 ng/ml and 0.01 ng/ml) in the presence of variable concentrations of glycine (as above) for 24h, 48h and 72h or pre-incubated with glycine and subsequently stimulated with different concentrations of SEB.
# [4] = system: superantigen primed neutrophils
# [5] = system: Peripheral mononuclear cells; details: glycine 0.00004-40 mM, 14 days, interleukin-4 and anti-CD40
# Experimental: To this end, peripheral mononuclear cells (as in example 1) were incubated with variable concentrations of glycine (0.00004mM, 0.0004mM, 0.004mM, 0.04mM, 0.4mM, 4mM, 40mM). The incubation time is carried out over 14 days. The cells were stimulated in the presence of glycine with interleukin-4 and anti-CD40 as B-cell activator. In the supernatant, the IgM, IgA, IgG and IgE synthesis was analysed.
# [6] = system: Peripheral mononuclear cells (PMNs); remark: listed apart in the source
# [7] = system: lymphocytes, monocytes, basophils (LMBs); remark: listed apart in the source
# [8] = cells primed with GM-CSF, variable glycine, then NaF
# [9] = glycine pre-incubation over 30 minutes
smiles,measurement,setting,value
NCC(=O)O [glycine],respiratory burst,"Human neutrophils (PMN); glycine 0.04 mM, then fMLP",further modulation
same,oxygen metabolites (respiratory burst),"Human neutrophils (PMN); glycine 4.0, 0.4, 0.04 mM, 20 min at 37°C, no subsequent stimulation",no effect
same,respiratory burst,"Human neutrophils (PMN); glycine pre-incubation, then NaF (20mM)",dose-dependent suppression and also an increase
same,respiratory burst,"Human neutrophils (PMN); glycine pre-incubation, then PMA (10 ng)",No changes
same,IL-8 release,[1],significant increase
same,interleukin-8 release,"[1]; cells pre-incubated with interferon-γ, then staphylococcus enterotoxin B",dose-dependent stimulation
same,interleukin-8 release,[1]; staphylococcus enterotoxin B stimulation,marginal increase
same,LTB4 generation,Neutrophils (PMNs); [8],inhibition
same,LTC4 generation,Neutrophils (PMNs); [8],inhibition
same,LTB4 generation,"Neutrophils (PMNs); cells primed with GM-CSF, variable glycine, then calcium ionophore",marginal increase
same,LTB4 release,"Neutrophils (PMNs); cells primed with GM-CSF, variable glycine, then fMLP",fluctuating
same,fMLP-induced LTE4 generation,Neutrophils (PMNs); glycine 4.0 mM,suppressing influence
same,LTB4 release,Neutrophils (PMNs); [9],increase
same,LTC4 release,Neutrophils (PMNs); [9],suppression
same,omega-LTB4 release,Neutrophils (PMNs); [9],increase
same,leukotriene-E4,Neutrophils (PMNs); neutrophils activated with calcium ionophore in the presence of glycine,very strong suppression
same,LTB4 generation,"Neutrophils (PMNs); neutrophils in the presence of glycine, fMLP",suppression
same,interleukin-10,[2],increase
same,release of interleukin-10,[2]; glycine combined with staphylococcus enterotoxin B (Fig. 1),significant release
same,interferon-γ release,"[3]; 48 hours glycine pre-incubation, subsequent RSV stimulation",intense increase
same,interferon-γ release,"[3]; 48 hours glycine pre-incubation, subsequent SEB stimulation (Fig. 2), refers to intense increase",similarly indicated
same,interferon-γ release,[3]; RSV used instead of SEB,dose-dependent increase
same,interferon-γ release,"[3]; SEB with glycine, incubation of up to 48 hours",Marginal effects
same,interferon-γ release,"[3]; glycine pre-incubation over 72 hours, SEB as activator",increase
same,release of interferon-γ,"[3]; glycine pre-incubation, subsequent SEB stimulation",extremely potent release
same,interferon-γ concentration,[3]; very long glycine pre-incubation and subsequent stimulation,reduction
same,20-carboxy-LTB4,[4],drop
same,LTC4,[4],increase
same,cysteinyl leukotrienes,[4],increase
same,omega-LTB4 generation,[4],increase
same,release of 12-HETE,[4],increase
same,induced IgE synthesis,[5],no affect
same,"other immunoglobulins (IgM, IgA, IgG synthesis)",[5],no changes
same,TNF release,"[6]; GM-CSF (10 ng) primed model, then SEB (10 ng)",suppression
same,TNF release,[6]; RSV as stimulus,modulation
same,TNF release,[6]; conditions of the interleukin-8 experiments,no significant changes
same,TNF,"[6]; glycine 0.0004-0.4 mM pre-incubation, then SEB (10 ng)",dose-dependent increase
same,SEB-induced TNF release,"[6]; glycine pre-incubation, then SEB",increase
same,TNF release,"[6]; glycine pre-incubation, then SEB, in dependence on stimulus",suppression
same,TNF release,"[6]; phospholipase C at variable concentrations as stimulus, 'also applies' refers to modulation",This also applies
same,interleukin-12 release,"LMBs; GM-CSF priming, glycine 2 hours, then SEB, eliminated with low glycine concentrations",marginal reduction
same,interleukin-12 release,"LMBs; glycine incubation alone, low concentrations of glycine",stimulatory effect
same,SEB-induced TNF-α release,[7],marked suppression
same,TNF-α,[7],increase
same,phospholipase C induced TNF-α release,[7],great suppression
same,suppression of the TNF-α release,[7],lower
same,staphylococcus enterotoxin B induced TNF-α release,"[7]; LMBs incubated with interferon-γ 24 hours, then SEB",great suppression
